Values of other authors as cited in article PMC7504770, “Mechanistic Insights into the Chaperoning of Human Lysosomal-Galactosidase Activity: Highly Functionalized Aminocyclopentanes and C-5a-Substituted Derivatives of 4-epi-Isofagomine” (Molecules, 2020).

Target: T1, human lysosomal acid β-galactosidase (GH35) (Homo sapiens, UniProt P16278)
T1 construct: Activity was measured in normal fibroblasts; endogenous in cells; host or cells: normal human skin fibroblasts (homogenate)
T1 sequence (P16278 29-677): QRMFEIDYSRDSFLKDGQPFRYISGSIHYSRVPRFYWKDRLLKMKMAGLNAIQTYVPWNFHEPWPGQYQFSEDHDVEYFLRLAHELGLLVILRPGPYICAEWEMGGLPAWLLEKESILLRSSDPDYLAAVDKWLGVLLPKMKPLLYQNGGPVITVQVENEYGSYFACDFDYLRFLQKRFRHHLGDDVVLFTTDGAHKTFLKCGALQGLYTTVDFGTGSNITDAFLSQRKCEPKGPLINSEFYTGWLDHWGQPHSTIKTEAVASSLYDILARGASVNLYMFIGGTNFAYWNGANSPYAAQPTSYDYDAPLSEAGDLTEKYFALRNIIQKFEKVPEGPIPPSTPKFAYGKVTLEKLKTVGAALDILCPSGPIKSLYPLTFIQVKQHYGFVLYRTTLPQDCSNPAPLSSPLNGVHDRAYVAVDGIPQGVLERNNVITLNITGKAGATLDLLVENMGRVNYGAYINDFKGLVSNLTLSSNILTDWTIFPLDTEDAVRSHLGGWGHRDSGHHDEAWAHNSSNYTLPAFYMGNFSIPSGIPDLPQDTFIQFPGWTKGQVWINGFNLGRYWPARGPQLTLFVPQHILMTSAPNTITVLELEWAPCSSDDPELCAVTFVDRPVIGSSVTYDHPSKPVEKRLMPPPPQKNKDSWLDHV
Conditions: read-out: β-Gal human lys. (GH35); cited from earlier work

## CN(C)c1cccc2c(S(=O)(=O)NCCCCCC[C@@H]3NC[C@@H](O)[C@@H](O)[C@H]3CO)cccc12 [Compound 14]
  IC50: 380 nM

## CN(C)c1cccc2c(S(=O)(=O)NCCCCCCN[C@H]3[C@H](O)[C@@H](O)[C@@H](O)[C@H]3CO)cccc12 [Compound 17]
  IC50: 400 nM
